According to patent US20170320870A1 (Medical Research Council Technology, priority 2009, published 2017):

Biological target: T1, LRRK2 wild type (recombinant human, catalytic domain amino acids 970-2527, GST-tagged) (Homo sapiens, UniProt Q5S007)
T1 construct: The wild type used was recombinant human, catalytic domain (amino acids 970-2527) GST-tagged, expressed in insect cells; GST; purchased Invitrogen Corporation PV4873; host or cells: insect cells
Test: LRRK2 wild type protein kinase assay ([γ-33P] ATP, peptide substrate […]), IC50
Assay type: biochemical
Settings: LRRK2 (variant not given); read-out: Potency score, LRRK2 IC50
In short: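 IC50 derived from duplicate 10-point titrations, with 33P incorporation into a 100 μM peptide counted after P81 filter capture. Roughly 5 nM unactivated kinase reacted with Mg/[γ-33P]ATP for 180 min at room temperature (~21 °C), pH 7.5 Tris buffer containing 10 mM MgCl2, EGTA and DTT; acid-quenched.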

T1 sequence (Q5S007 970-2527): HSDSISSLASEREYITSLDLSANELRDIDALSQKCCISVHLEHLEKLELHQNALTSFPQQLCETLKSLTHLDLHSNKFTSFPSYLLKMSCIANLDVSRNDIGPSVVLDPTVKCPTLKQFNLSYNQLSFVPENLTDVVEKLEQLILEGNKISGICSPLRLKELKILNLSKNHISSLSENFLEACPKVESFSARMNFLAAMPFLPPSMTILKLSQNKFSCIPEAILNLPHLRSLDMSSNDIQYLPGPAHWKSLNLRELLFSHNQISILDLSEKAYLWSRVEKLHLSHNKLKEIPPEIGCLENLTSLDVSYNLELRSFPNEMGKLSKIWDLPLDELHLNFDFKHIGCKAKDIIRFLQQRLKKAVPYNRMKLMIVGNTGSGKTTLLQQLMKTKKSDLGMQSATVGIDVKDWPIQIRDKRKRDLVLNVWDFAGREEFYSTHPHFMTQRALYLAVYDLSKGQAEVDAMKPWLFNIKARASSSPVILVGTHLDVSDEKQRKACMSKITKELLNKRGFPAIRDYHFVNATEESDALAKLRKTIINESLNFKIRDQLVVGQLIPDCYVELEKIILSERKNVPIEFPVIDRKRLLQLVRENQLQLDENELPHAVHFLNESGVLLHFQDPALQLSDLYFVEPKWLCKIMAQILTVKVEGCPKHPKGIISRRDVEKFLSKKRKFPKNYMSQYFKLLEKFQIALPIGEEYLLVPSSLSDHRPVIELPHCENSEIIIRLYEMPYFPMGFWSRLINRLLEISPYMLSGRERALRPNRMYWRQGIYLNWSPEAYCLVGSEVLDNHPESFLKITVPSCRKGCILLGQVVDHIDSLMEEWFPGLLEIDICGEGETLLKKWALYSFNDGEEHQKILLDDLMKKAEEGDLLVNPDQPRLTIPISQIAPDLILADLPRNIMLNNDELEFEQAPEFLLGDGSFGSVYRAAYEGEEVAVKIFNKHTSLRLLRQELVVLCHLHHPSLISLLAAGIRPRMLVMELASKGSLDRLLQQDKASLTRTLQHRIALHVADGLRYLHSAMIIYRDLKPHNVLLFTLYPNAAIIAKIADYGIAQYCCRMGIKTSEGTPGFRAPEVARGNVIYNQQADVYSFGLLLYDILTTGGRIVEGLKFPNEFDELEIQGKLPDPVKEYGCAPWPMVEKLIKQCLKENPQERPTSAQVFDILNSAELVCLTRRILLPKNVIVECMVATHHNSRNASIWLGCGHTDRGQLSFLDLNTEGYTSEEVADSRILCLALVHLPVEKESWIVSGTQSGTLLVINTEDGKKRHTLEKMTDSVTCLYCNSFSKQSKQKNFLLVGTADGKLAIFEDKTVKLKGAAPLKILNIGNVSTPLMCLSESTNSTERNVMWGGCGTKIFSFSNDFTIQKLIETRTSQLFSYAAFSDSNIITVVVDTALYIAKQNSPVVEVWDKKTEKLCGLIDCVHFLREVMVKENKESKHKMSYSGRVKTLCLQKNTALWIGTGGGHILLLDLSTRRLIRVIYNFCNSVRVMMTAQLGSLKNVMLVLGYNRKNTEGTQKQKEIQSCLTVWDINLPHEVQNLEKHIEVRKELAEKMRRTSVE

Compound | IC50
Cc1n[nH]c2ccnc(N3CCN(c4cccc(Cl)c4)CC3)c12 [Example 7, 4-[4-(3-Chloro-phenyl)-piperazin-1-yl]-3-methyl-1H-pyrazolo[4,3-c]pyridine] | 1000 to 10000 nM
Cc1n[nH]c2ccnc(NC3CCCC3)c12 [Example 21, Cyclopentyl-(3-methyl-1H-pyrazolo[4,3-c]pyridin-4-yl)-amine] | 100 to 1000 nM
Cc1n[nH]c2ccnc(NC3CCN(Cc4ccccc4)CC3)c12 [Example 98, (1-Benzyl-piperidin-4-yl)-(3-methyl-1H-pyrazolo[4,3-c]pyridin-4-yl)-amine] | 1000 to 10000 nM
Cc1n[nH]c2ccnc(NC3CCN(C(=O)C4CCC4)CC3)c12 [Example 104, Cyclobutyl-[4-(3-methyl-1H-pyrazolo[4,3-c]pyridin-4-ylamino)-piperidin-1-yl]-methanone] | 1000 to 10000 nM
Cc1n[nH]c2ccnc(C(=O)NC3CCCCC3)c12 [Example 100, 3-Methyl-1H-pyrazolo[4,3-c]pyridine-4-carboxylic acid cyclohexylamide] | 1000 to 10000 nM
Cc1n[nH]c2ccnc(NC3CCCN(C)C3)c12 (stereo not drawn) [Example 31, (1-Methyl-piperidin-3-yl)-(3-methyl-1H-pyrazolo[4,3-c]pyridin-4-yl)-amine] | 1000 to 10000 nM
COc1cccc(-c2nccc3[nH]nc(C)c23)c1 [Example 57, 4-(3-Methoxy-phenyl)-3-methyl-1H-pyrazolo[4,3-c]pyridine] | 1000 to 10000 nM
Cc1n[nH]c2ccnc(Nc3ccc(-c4cnco4)cc3)c12 [Example 87, (3-Methyl-1H-pyrazolo[4,3-c]pyridin-4-yl)-(4-oxazol-5-yl-phenyl)-amine] | 100 to 1000 nM
Cc1n[nH]c2ccnc(Nc3cccc(F)c3)c12 [Example 65, (3-Fluoro-phenyl)-(3-methyl-1H-pyrazolo[4,3-c]pyridin-4-yl)-amine] | 100 to 1000 nM
Cc1n[nH]c2ccnc(Nc3ccc4c(cnn4C)c3)c12 [Example 99, (1-Methyl-1H-indazol-5-yl)-(3-methyl-1H-pyrazolo[4,3-c]pyridin-4-yl)-amine] | 100 to 1000 nM
Cc1n[nH]c2ccnc(-c3cccc(NS(C)(=O)=O)c3)c12 [Example 52, N-[3-(3-Methyl-1H-pyrazolo[4,3-c]pyridin-4-yl)-phenyl]-methane-sulfonamide] | 1000 to 10000 nM
Cc1n[nH]c2ccnc(N[C@@H](C)C(C)C)c12 [Example 40, ((S)-1,2-Dimethyl-propyl)-(3-methyl-1H-pyrazolo[4,3-c]pyridin-4-yl)-amine] | 100 to 1000 nM
Cc1n[nH]c2ccnc(NC3CCCCCC3)c12 [Example 33, Cycloheptyl-(3-methyl-1H-pyrazolo[4,3-c]pyridin-4-yl)-amine] | 100 to 1000 nM
Cc1n[nH]c2ccnc(N[C@@H](C)c3ccccc3)c12 [Example 29, (3-Methyl-1H-pyrazolo[4,3-c]pyridin-4-yl)-((S)-1-phenyl-ethyl)-amine] | 1000 to 10000 nM
CCOc1cccc(Nc2nccc3[nH]nc(C)c23)c1 [Example 71, (3-Ethoxy-phenyl)-(3-methyl-1H-pyrazolo[4,3-c]pyridin-4-yl)-amine] | 1000 to 10000 nM
CCC(C)Nc1nccc2[nH]nc(C)c12 (stereo not drawn) [Example 23, sec-Butyl-(3-methyl-1H-pyrazolo[4,3-c]pyridin-4-yl)-amine] | 100 to 1000 nM
Cc1n[nH]c2ccnc(Nc3ccc4cnn(C)c4c3)c12 [Example 90, (1-Methyl-1H-indazol-6-yl)-(3-methyl-1H-pyrazolo[4,3-c]pyridin-4-yl)-amine] | 100 to 1000 nM
Cc1n[nH]c2ccnc(OC3CCN(C(C)C)CC3)c12 [Example 119, 4-(1-Isopropyl-piperidin-4-yloxy)-3-methyl-1H-pyrazolo[4,3-c]pyridine] | 1000 to 10000 nM
Cc1n[nH]c2ccnc(NC3CCC(F)(F)CC3)c12 [Example 20, (4,4-Difluoro-cyclohexyl)-(3-methyl-1H-pyrazolo[4,3-c]pyridin-4-yl)-amine] | 100 to 1000 nM

Now from value to compound:

IC50 | Compound
100 to 1000 nM | O=C(CCc1n[nH]c2ccnc(NC3CCCCC3)c12)NC1CCCC1 [Example 184, 3-(4-Cyclohexylamino-1H-pyrazolo[4,3-c]pyridin-3-yl)-N-cyclopentyl-propionamide]
1000 to 10000 nM | COc1ccccc1CCNc1nccc2[nH]nc(C)c12 [Example 339, [2-(2-Methoxy-phenyl)-ethyl]-(3-methyl-1H-pyrazolo[4,3-c]pyridin-4-yl)-amine]
100 to 1000 nM | CCN(CC)C(=O)C1CCCN(C(=O)CCc2n[nH]c3ccnc(NC4CCCCC4)c23)C1 (stereo not drawn) [Example 193, 1-[3-(4-Cyclohexylamino-1H-pyrazolo[4,3-c]pyridin-3-yl)-propionyl]-piperidine-3-carboxylic acid diethylamide]
1000 to 10000 nM | Cc1n[nH]c2ccnc(Cc3ccccc3)c12 [Example 125, 4-Benzyl-3-methyl-1H-pyrazolo[4,3-c]pyridine]
100 to 1000 nM | c1cc2[nH]nc(-c3ccoc3)c2c(NC2CCCCC2)n1 [Example 147]
1000 to 10000 nM | O=C(CCc1n[nH]c2ccnc(O)c12)N1CCC[C@H](c2ccccc2)C1 [Example 257, 3-(4-Hydroxy-1H-pyrazolo[4,3-c]pyridin-3-yl)-1-((R)-3-phenyl-piperidin-1-yl)-propan-1-one]
< 100 nM | CC1CCN(C(=O)c2ccc(CCc3n[nH]c4ccnc(NC5CCCCC5)c34)cc2)CC1 [Example 229, {4-[2-(4-Cyclohexylamino-1H-pyrazolo[4,3-c]pyridin-3-yl)-ethyl]-phenyl}-(4-methyl-piperidin-1-yl)-methanone]
100 to 1000 nM | CCN(CC)C(=O)CCc1n[nH]c2ccnc(NC3CCCCC3)c12 [Example 181, 3-(4-Cyclohexylamino-1H-pyrazolo[4,3-c]pyridin-3-yl)-N,N-diethyl-propionamide]
100 to 1000 nM | CC(C)CN(C)C(=O)CCc1n[nH]c2ccnc(NC3CCCCC3)c12 [Example 182, 3-(4-Cyclohexylamino-1H-pyrazolo[4,3-c]pyridin-3-yl)-N-isobutyl-N-methyl-propionamide]
< 100 nM | O=C(Nc1ccc(CCc2n[nH]c3ccnc(NC4CCCCC4)c23)cc1)c1ccncc1 [Example 267, N-{4-[2-(4-Cyclohexylamino-1H-pyrazolo[4,3-c]pyridin-3-yl)-ethyl]-phenyl}-isonicotinamide]
100 to 1000 nM | COC1CCCN(C(=O)CCc2n[nH]c3ccnc(NC4CCCCC4)c23)C1 (stereo not drawn) [Example 196, 3-(4-Cyclohexylamino-1H-pyrazolo[4,3-c]pyridin-3-yl)-1-(3-methoxy-piperidin-1-yl)-propan-1-one]
< 100 nM | CC(C)CN(C)C(=O)c1ccc(CCc2n[nH]c3ccnc(NC4CCCCC4)c23)cc1 [Example 249, 4-[2-(4-Cyclohexylamino-1H-pyrazolo[4,3-c]pyridin-3-yl)-ethyl]-N-isobutyl-N-methyl-benzamide]
1000 to 10000 nM | COCCNC(=O)CCc1n[nH]c2ccnc(NC3CCCCC3)c12 [Example 211, 3-(4-Cyclohexylamino-1H-pyrazolo[4,3-c]pyridin-3-yl)-N-(2-methoxy-ethyl)-propionamide]
100 to 1000 nM | Cn1cc(-c2n[nH]c3ccnc(NC4CCCCC4)c23)cn1 [Example 162, Cyclohexyl-[3-(1-methyl-1H-pyrazolo-4-yl)-1H-pyrazolo[4,3-c]pyridin-4-yl]-amine]
100 to 1000 nM | Cc1n[nH]c2ccnc(NCCc3cccc(F)c3)c12 [Example 333, [2-(3-Fluoro-phenyl)-ethyl]-(3-methyl-1H-pyrazolo[4,3-c]pyridin-4-yl)-amine]
100 to 1000 nM | O=C(CCc1n[nH]c2ccnc(NC3CCCCC3)c12)N1CCOCC1 [Example 175, 3-(4-Cyclohexylamino-1H-pyrazolo[4,3-c]pyridin-3-yl)-1-morpholin-4-yl-propan-1-one]
100 to 1000 nM | c1cc2[nH]nc(-c3cnc(N4CCOCC4)nc3)c2c(NC2CCCCC2)n1 [Example 160, Cyclohexyl-[3-(2-morpholin-4-yl-pyrimidin-5-yl)-1H-pyrazolo[4,3-c]pyridin-4-yl]-amine]
100 to 1000 nM | Cc1n[nH]c2ccnc(NCCc3ccccc3)c12 [Example 335]
100 to 1000 nM | Cc1n[nH]c2ccnc(OCC(F)(F)F)c12 [Example 279, 3-Methyl-4-(2,2,2-trifluoro-ethoxy)-1H-pyrazolo [4,3-c]pyridine]
100 to 1000 nM | c1cc2[nH]nc(-c3ccc(N4CCOCC4)nc3)c2c(NC2CCCCC2)n1 [Example 154, Cyclohexyl-[3-(6-morpholin-4-yl-pyridin-3-yl)-1H-pyrazolo[4,3-c]pyridin-4-yl]-amine]
1000 to 10000 nM | Cc1n[nH]c2ccnc(NCCCN3CCCC3=O)c12 [Example 324, 1-[3-(3-Methyl-1H-pyrazolo[4,3-c]pyridin-4-ylamino)-propyl]-pyrrolidin-2-one]
< 100 nM | O=C(Nc1cccc(CCc2n[nH]c3ccnc(NC4CCCCC4)c23)c1)c1ccc(N2CCOCC2)cc1 [Example 227, N-{3-[2-(4-Cyclohexylamino-1H-pyrazolo[4,3-c]pyridin-3-yl)-ethyl]-phenyl}-4-morpholin-4-yl-benzamide]
1000 to 10000 nM | Cc1n[nH]c2ccnc(NCC3CCCCC3)c12 [Example 325, Cyclohexylmethyl-(3-methyl-1H-pyrazolo[4,3-c]pyridin-4-yl)-amine]
100 to 1000 nM | Cc1n[nH]c2ccnc(NCCc3cccnc3)c12 [Example 351, (3-Methyl-1H-pyrazolo[4,3-c]pyridin-4-yl)-(2-pyridin-3-yl-ethyl)-amine]
1000 to 10000 nM | CN(C)C(=O)c1ccc(-c2n[nH]c3ccnc(NC4CCCCC4)c23)cc1 [Example 165, 4-(4-Cyclohexylamino-1H-pyrazolo[4,3-c]pyridin-3-yl)-N,N-dimethyl-benzamide]
100 to 1000 nM | Cc1n[nH]c2ccnc(NCCc3ccccc3F)c12 [Example 332, [2-(2-Fluoro-phenyl)-ethyl]-(3-methyl-1H-pyrazolo[4,3-c]pyridin-4-yl)-amine]
